Test results taken from the NIST ThermoML archive (doi:10.1016/j.jct.2014.01.020).

Assay: molar heat capacity at constant pressure; xn = mol fraction of the nth substance listed
Conditions: Liquid, Flow calorimetry

C1CCCCC1 [cyclohexane] + CCCCO
molar heat capacity at constant pressure [J/K/mol]
Conditions | x2 = 0 | x2 = 0.1013 | x2 = 0.2003 | x2 = 0.3002 | x2 = 0.4013 | x2 = 0.4997 | x2 = 0.6002 | x2 = 0.6999 | x2 = 0.7998 | x2 = 0.8999
293.15 K, 100 kPa | 154.7 | 164.6 | 166.7 | 168.6 | 170.9 | 171.2 | 171.4 | 172.1 | 172.2 | 172.8
293.15 K, 5000 kPa | 153.8 | 163.3 | 165.3 | 167.1 | 169.5 | 169.7 | 170.2 | 170.6 | 171 | 171.9
293.15 K, 10000 kPa | 152.5 | 161.2 | 163.5 | 165.4 | 167.7 | 168.2 | 168.6 | 169.4 | 169.5 | 170.4
293.15 K, 15000 kPa | 150.5 | 159.1 | 161 | 163.4 | 165.5 | 165.9 | 166.3 | 168 | 168.3 | 169.1
293.15 K, 20000 kPa | 149.7 | 157.5 | 159.3 | 161.7 | 164.4 | 164.9 | 164.8 | 167.1 | 167.1 | 167.7
293.15 K, 25000 kPa | 147.7 | 155.9 | 157.8 | 160.3 | 162.8 | 163.1 | 163.4 | 165.6 | 166 | 166.6
313.15 K, 100 kPa | – | 179.7 | 182.8 | 185.3 | 187.8 | 188.1 | 189.4 | 191.3 | 191.4 | 191.1
313.15 K, 5000 kPa | – | 177.4 | 180.4 | 183.2 | 186.1 | 186.5 | 187.4 | 189.1 | 189.9 | 189.3
313.15 K, 10000 kPa | – | 175.2 | 178.8 | 181.1 | 183.7 | 184.5 | 185.4 | 187.4 | 188.9 | 187.3
313.15 K, 15000 kPa | – | 172.9 | 175.8 | 178.9 | 181.6 | 182.7 | 183.8 | 185.5 | 187.2 | 186.5
313.15 K, 20000 kPa | – | 170.5 | 173.8 | 177 | 180.4 | 180.7 | 181.4 | 184.3 | 185.4 | 184.6
313.15 K, 25000 kPa | 154.6 | 168.7 | 171.6 | 175 | 177.8 | 179.3 | 179.7 | 182.3 | 183.9 | 183.1
